# In patent US20250353864A1, “INDAZOLE CONTAINING MACROCYCLES AND THEIR USE” (BLOSSOMHILL THERAPEUTICS, INC., priority 2022, published 2025):
# pIC50: −log10 of the molar value.
# Legend:
# Type in all cases: biochemical
# [1] = molecular target: EGFR L858R/T790M/C797S mutant (Homo sapiens (Human), UniProt P00533, C797S/L858R/T790M); assay: HotSpot radiometric kinase assay, EGFR L858R/T790M/C797S mutant; conditions: 10 μM ATP
# How it was run: (§1)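 Enzyme and substrate pairs were exposed to inhibitor for roughly 20 min before radiolabelled ATP (10 μM final) was introduced; the reaction proceeded 120 min at ambient temperature in pH 7.5 buffer with 1% DMSO, and phosphorylated product was captured on P81 filters for IC50 determination.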
# EGFR L858R/T790M mutant = EGFR L858R/T790M mutant (Homo sapiens (Human), UniProt P00533, L858R/T790M); assay: HotSpot radiometric kinase assay, EGFR L858R/T790M mutant; conditions: 10 μM ATP
# How it was run: as §1
# EGFR Δ746-750 mutant = EGFR Δ746-750 mutant (Homo sapiens (Human), UniProt P00533, DEL746-750); assay: HotSpot radiometric kinase assay, EGFR Δ746-750 mutant; conditions: 10 μM ATP
# How it was run: as §1
# EGFR L858R mutant = EGFR L858R mutant (Homo sapiens (Human), UniProt P00533, L858R); assay: HotSpot radiometric kinase assay, EGFR L858R mutant; conditions: 10 μM ATP
# How it was run: as §1
# [2] = molecular target: EGFR Δ746-750/C797S mutant (Homo sapiens (Human), UniProt P00533, C797S/DEL746-750); assay: HotSpot radiometric kinase assay, EGFR Δ746-750/C797S mutant; conditions: 10 μM ATP
# How it was run: as §1
# EGFR (D770_N771insNPG) = EGFR (D770_N771insNPG) (Homo sapiens (Human), UniProt P00533, INS770NPG); assay: HotSpot radiometric kinase assay, EGFR (D770_N771insNPG); conditions: 10 μM ATP, read-out: EGFR (Δ770_N771insNPG) IC50
# How it was run: as §1
# EGFR WT = EGFR WT (Homo sapiens (Human), UniProt P00533); assay: HotSpot radiometric kinase assay (Reaction Biology), EGFR WT; conditions: 10 μM ATP
# How it was run: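 Kinase, substrate and cofactors are mixed in 20 mM Hepes pH 7.5 with 10 mM MgCl2, 1 mM EGTA, 2 mM DTT and 1% DMSO. Compound is added, and about 20 min later ATP/33P-ATP (10 μM final) starts a 120-min room-temperature reaction, which is then spotted onto P81 paper.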
# EGFR (D770_N771insNPG), sequence (P00533 other isoform, or with tags, fused parts or gaps del 1-668/ins NPG behind 770 limits assumed): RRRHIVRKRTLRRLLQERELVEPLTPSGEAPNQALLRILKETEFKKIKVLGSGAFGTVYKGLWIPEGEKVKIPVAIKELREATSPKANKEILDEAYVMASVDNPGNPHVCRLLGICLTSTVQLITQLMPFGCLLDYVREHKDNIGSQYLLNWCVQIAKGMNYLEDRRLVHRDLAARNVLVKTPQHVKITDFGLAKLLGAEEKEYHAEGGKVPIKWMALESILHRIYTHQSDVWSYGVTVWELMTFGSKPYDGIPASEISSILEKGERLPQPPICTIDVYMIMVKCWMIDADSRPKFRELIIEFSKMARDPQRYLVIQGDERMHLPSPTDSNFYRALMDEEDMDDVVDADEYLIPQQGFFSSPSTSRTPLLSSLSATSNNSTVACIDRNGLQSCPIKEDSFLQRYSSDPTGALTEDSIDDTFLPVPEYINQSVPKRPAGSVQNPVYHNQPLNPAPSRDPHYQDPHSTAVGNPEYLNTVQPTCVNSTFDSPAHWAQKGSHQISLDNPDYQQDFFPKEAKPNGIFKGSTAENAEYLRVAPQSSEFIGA
# EGFR L858R/T790M/C797S mutant, sequence (P00533 25-1210 T790M/C797S/L858R): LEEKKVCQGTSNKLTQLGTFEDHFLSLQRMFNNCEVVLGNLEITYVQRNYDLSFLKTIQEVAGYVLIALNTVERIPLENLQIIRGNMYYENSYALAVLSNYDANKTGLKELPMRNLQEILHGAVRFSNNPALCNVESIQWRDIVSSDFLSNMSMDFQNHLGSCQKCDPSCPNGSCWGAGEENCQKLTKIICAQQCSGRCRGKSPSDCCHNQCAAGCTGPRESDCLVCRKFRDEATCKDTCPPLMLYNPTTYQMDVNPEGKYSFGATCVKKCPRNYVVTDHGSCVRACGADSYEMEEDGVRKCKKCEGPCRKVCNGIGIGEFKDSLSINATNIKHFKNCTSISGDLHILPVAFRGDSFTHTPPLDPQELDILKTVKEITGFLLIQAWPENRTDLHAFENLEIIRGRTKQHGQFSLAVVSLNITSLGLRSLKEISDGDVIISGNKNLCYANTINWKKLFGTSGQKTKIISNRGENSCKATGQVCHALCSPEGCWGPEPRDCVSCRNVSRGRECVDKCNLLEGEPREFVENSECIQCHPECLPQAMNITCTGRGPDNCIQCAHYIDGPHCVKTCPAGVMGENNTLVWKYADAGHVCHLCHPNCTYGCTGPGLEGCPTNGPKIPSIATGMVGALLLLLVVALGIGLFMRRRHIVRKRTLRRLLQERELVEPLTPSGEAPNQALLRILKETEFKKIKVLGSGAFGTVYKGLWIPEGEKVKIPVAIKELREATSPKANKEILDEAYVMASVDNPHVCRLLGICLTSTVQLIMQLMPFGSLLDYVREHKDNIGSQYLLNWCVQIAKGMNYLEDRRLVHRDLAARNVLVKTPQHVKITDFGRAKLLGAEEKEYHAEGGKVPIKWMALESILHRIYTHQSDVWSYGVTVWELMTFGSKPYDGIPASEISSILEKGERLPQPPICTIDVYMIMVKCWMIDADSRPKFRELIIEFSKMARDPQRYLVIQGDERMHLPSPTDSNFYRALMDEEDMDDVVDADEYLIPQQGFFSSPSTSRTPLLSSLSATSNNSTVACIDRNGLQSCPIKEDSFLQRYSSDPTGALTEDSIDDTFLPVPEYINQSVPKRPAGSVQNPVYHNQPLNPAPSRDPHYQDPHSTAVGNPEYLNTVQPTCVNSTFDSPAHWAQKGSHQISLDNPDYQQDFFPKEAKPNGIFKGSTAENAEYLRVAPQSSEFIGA
# EGFR L858R/T790M mutant, sequence (P00533 25-1210 T790M/L858R): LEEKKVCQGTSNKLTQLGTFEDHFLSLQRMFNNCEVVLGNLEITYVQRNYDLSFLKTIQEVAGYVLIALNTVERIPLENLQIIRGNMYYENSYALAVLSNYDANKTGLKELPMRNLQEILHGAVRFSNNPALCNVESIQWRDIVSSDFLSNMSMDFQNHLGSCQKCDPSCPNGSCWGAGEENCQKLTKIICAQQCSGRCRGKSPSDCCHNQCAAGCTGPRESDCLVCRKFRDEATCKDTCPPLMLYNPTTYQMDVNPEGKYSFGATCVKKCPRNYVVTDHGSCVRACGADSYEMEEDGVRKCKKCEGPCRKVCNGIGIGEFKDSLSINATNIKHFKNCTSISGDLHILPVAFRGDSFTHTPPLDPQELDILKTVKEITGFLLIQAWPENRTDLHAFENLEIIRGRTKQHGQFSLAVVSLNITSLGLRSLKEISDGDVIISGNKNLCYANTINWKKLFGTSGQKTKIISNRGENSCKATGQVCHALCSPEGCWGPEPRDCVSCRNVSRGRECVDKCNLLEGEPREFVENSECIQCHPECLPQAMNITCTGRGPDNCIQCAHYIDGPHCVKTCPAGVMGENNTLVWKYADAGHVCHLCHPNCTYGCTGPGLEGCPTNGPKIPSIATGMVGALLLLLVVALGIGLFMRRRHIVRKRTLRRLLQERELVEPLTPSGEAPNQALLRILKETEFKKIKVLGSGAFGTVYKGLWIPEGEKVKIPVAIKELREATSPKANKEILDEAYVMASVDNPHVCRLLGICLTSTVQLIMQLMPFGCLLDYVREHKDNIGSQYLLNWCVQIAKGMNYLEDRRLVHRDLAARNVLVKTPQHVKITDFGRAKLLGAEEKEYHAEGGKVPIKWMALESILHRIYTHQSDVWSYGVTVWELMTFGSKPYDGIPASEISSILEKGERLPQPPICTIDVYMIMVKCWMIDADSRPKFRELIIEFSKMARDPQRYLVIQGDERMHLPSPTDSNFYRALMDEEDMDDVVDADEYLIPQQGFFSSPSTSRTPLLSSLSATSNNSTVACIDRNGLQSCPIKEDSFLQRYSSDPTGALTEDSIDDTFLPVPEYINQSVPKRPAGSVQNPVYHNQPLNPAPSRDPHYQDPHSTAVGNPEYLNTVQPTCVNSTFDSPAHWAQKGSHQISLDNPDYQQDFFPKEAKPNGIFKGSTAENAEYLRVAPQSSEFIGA
# EGFR L858R mutant, sequence (P00533 25-1210 L858R): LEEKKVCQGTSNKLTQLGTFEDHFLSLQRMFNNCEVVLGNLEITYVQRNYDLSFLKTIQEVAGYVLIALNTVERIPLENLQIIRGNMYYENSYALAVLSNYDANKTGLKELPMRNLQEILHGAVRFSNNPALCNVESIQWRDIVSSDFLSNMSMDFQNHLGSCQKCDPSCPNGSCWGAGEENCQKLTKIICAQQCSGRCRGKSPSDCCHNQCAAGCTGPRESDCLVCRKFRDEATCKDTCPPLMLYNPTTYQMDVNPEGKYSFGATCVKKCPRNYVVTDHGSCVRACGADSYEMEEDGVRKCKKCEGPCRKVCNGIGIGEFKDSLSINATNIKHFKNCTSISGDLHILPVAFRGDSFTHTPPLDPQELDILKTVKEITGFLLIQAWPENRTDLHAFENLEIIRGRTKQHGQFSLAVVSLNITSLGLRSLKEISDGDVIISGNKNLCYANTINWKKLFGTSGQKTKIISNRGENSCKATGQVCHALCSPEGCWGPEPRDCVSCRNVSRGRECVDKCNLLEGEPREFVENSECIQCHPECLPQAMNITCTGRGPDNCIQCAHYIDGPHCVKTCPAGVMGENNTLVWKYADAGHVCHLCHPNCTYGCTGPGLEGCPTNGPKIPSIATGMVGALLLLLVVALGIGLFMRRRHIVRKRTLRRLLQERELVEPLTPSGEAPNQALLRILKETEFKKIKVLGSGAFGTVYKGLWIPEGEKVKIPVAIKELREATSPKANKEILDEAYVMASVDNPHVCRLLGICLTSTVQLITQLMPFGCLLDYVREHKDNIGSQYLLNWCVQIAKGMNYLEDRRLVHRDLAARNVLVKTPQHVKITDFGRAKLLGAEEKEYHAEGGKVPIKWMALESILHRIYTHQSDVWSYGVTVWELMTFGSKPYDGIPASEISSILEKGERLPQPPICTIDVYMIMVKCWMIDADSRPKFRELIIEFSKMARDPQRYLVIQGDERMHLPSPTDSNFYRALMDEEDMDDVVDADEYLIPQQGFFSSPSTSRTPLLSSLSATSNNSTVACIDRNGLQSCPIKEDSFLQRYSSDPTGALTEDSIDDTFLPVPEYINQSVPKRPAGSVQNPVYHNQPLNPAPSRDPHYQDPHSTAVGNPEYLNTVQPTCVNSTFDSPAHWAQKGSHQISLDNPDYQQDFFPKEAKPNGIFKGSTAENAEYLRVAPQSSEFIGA
# EGFR Δ746-750/C797S mutant, sequence (P00533 other isoform, or with tags, fused parts or gaps C797S/del 1-668/del 746-750 limits assumed): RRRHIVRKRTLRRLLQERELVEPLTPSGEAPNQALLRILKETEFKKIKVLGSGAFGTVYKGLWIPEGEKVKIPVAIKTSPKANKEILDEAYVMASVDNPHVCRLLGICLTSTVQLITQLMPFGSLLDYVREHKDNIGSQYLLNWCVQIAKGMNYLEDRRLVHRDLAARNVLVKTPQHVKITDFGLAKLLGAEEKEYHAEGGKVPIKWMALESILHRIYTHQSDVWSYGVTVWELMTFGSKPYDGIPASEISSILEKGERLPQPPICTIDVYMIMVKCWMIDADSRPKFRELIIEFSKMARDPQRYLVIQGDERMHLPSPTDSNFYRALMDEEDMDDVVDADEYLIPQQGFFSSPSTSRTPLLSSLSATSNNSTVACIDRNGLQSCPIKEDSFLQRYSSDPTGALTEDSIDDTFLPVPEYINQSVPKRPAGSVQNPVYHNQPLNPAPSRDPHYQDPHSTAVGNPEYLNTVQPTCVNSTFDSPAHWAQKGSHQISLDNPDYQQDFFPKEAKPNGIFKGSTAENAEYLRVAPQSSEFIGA
Compound,pIC50 [1],pIC50 (EGFR L858R/T790M mutant),pIC50 (EGFR Δ746-750 mutant),pIC50 (EGFR L858R mutant),pIC50 [2],pIC50 (EGFR (D770_N771insNPG)),pIC50 (EGFR WT)
"Cc1c2c(nn1CCN1CCCC1)CN(C)C[C@@H](C)Oc1c(cnn1C)-c1ccc3[nH]nc(c3c1)/C=C/2 [Example 121, (10R,17E)-8,10,12,16-tetramethyl-15-[2-(pyrrolidin-1-yl)ethyl]-2,10,11,12,13,15-hexahydro-8H-3,5-ethenotripyrazolo[3,4-f:3′,4′-j:4″,3″- n][1,4]oxazacyclopentadecine]",7.89,8.21,7.39,7.03,7.38,6.55,6.53
"Cc1nn(C[C@@H](C)O)c2c1/C=C/c1n[nH]c3ccc(cc13)-c1cnn(C)c1O[C@@H](C)CN(C)C2 [Example 127, (2R)-1-[(10S,17E)-8,10,12,16-tetramethyl-2,8,10,11,12,13-hexahydro-14H-3,5-ethenotripyrazolo[3,4-f:3′,4′-j:4″,3″-n][1,4]oxazacyclopentadecin-14-yl]propan-2-ol]",9.37,9.82,8.55,8.74,9.07,7.59,7.95
"Cc1c2c(nn1C[C@@H](C)O)CN(C)C[C@H](C)Oc1c(cnn1C)-c1ccc3[nH]nc(c3c1)/C=C/2 [Example 128, (2R)-1-[(10S,17E)-8,10,12,16-tetramethyl-2,8,10,11,12,13-hexahydro-15H-3,5-ethenotripyrazolo[3,4-f:3′,4′-j:4″,3″-n][1,4]oxazacyclopentadecin-15-yl]propan-2-ol]",9.00,9.11,7.47,7.66,7.82,6.42,6.58
"CCc1nn(CCO)c2c1/C=C/c1n[nH]c3ccc(cc13)-c1cnn(C)c1O[C@@H](C)CN(C)C2 [Example 129, 2-[(10S,17E)-16-ethyl-8,10,12-trimethyl-2,8,10,11,12,13-hexahydro-14H-3,5-ethenotripyrazolo[3,4-f:3′,4′-j:4″,3″-n][1,4]oxazacyclopentadecin-14-yl]ethan-1-ol]",9.48,10.05,9.24,9.33,9.40,8.19,8.52
"Cc1nn(C)c2c1CN(C)C[C@H](C)Oc1c(cnn1C)-c1ccc3[nH]nc(c3c1)/C=C/2 [Example 130, (10S,17E)-8,10,12,14,16-pentamethyl-2,10,11,12,13,16-hexahydro-8H-3,5-ethenotripyrazolo[4,3-f:3′,4′-j:4″,3″- n][1,4]oxazacyclopentadecine]",8.25,8.14,7.09,7.07,7.42,6.07,6.34
"CCN1Cc2c(c(C)nn2CCO)/C=C/c2n[nH]c3ccc(cc23)-c2cnn(C)c2O[C@@H](C)C1 [Example 133, v2-[(10S,17E)-12-ethyl-8,10,16-trimethyl-2,8,10,11,12,13-hexahydro-14H-3,5-ethenotripyrazolo[3,4-f:3′,4′-j:4″,3″-n][1,4]oxazacyclopentadecin-14-yl]ethan-1-ol]",9.62,10.15,9.92,10.05,9.46,8.79,9.27
"Cn1ncc2c1OCCN1CC[C@@H](Oc3ccc(C(C)(C)O)cc3/C=C/c3n[nH]c4ccc-2cc34)C1=O [Example 135, (10R,16E)-14-(2-hydroxypropan-2-yl)-3-methyl-3,5,6,9,10,19-hexahydro-8H-20,22-etheno-7,10-methanodipyrazolo[3,4-i:4′,3′-m][1,8,5]benzodioxazacyclooctadecin-25-one]",7.41,7.70,7.32,6.89,7.01,6.10,6.08

# Further lines, results first:
pIC50 [1],pIC50 (EGFR L858R/T790M mutant),pIC50 (EGFR Δ746-750 mutant),pIC50 (EGFR L858R mutant),pIC50 [2],pIC50 (EGFR (D770_N771insNPG)),pIC50 (EGFR WT),Compound
8.81,9.10,7.82,7.84,7.92,6.48,6.99,"C[C@H]1CN(C)Cc2c(c(OC3CCNCC3)nn2C)/C=C/c2n[nH]c3ccc(cc23)-c2cnn(C)c2O1 [Example 136, (10S,17E)-8,10,12,14-tetramethyl-16-[(piperidin-4-yl)oxy]-2,10,11,12,13,14-hexahydro-8H-3,5-ethenotripyrazolo[3,4-f:3′,4′-j:4″,3″-n][1,4]oxazacyclopentadecine]"
9.26,9.21,8.44,8.46,8.85,7.07,7.62,"Cc1nn(CCO)c2c1/C=C/c1n[nH]c3ccc(cc13)-c1c(C)nn(C)c1O[C@@H](C)CN(C)C2 [Example 138, 2-[(10S,17E)-6,8,10,12,16-pentamethyl-2,8,10,11,12,13-hexahydro-14H-3,5-ethenotripyrazolo[3,4-f:3′,4′-j:4″,3″-n][1,4]oxazacyclopentadecin-14-yl]ethan-1-o]"
8.89,8.92,8.03,7.94,8.21,6.73,7.07,"Cc1nn(C)c2c1/C=C/c1n[nH]c3ccc(cc13)-c1cnn(C)c1O[C@@H](C)CN(C1COC1)C2 [Example 140, (10S,17E)-8,10,14,16-tetramethyl-12-(oxetan-3-yl)-2,10,11,12,13,14-hexahydro-8H-3,5-ethenotripyrazolo[3,4-f:3′,4′-j:4″,3″-n][1,4]oxazacyclopentadecine]"
8.56,8.37,7.46,7.37,7.63,6.39,6.43,"C[C@H]1CN(C)Cc2c(c(O)nn2C)/C=C/c2n[nH]c3ccc(cc23)-c2cnn(C)c2O1 [Example 148, (10S,17E)-8,10,12,14-tetramethyl-2,10,11,12,13,14-hexahydro-8H-3,5-ethenotripyrazolo[3,4-f:3′,4′-j:4″,3″-n][1,4]oxazacyclopentadecin-16-ol]"
9.43,9.35,8.49,8.64,8.59,7.48,8.20,"C[C@H]1CN(C)Cc2c(c(OC3CN(S(C)(=O)=O)C3)nn2C)/C=C/c2n[nH]c3ccc(cc23)-c2cnn(C)c2O1 [Example 150, (10S,17E)-16-{[1-(methanesulfonyl)azetidin-3-yl]oxy}-8,10,12,14-tetramethyl-2,10,11,12,13,14-hexahydro-8H-3,5-ethenotripyrazolo[3,4-f:3′,4′-j:4″,3″-n][1,4]oxazacyclopentadecine]"
9.21,9.24,7.21,7.68,7.06,7.02,6.95,"Cc1nn(CCO)c2c1/C=C/c1n[nH]c3ccc(cc13)-c1cnn(C)c1OC(C1CCC1)CN(C)C2 (stereo not shown) [Example 152, 2-[(17E)-10-cyclobutyl-8,12,16-trimethyl-2,8,10,11,12,13-hexahydro-14H-3,5-ethenotripyrazolo[3,4-f:3′,4′-j:4″,3″-n][1,4]oxazacyclopentadecin-14-yl]ethan-1-ol]"
